2 molecules from patent US12351596B2 (priority 2019, dated 2025) can be followed below.

The subject of the test is antibodies present in serum samples from melioidosis patients. It is filed as binding, human.

Entries after “also recorded” stand apart in the source; their conditions may differ.

For the molecule “(5-Amino-1-pentyl) 2-O-acetyl-6-deoxy-3-O-methyl-α-L-talopyranosyl-(1→3)-β-D-glucopyranosyl-(1→3)-2-O-acetyl-6-deoxy-α-L-talopyranosyl-(1→3)-δ-D-glucopyranoside hydrochloride [tetrasaccharide 9]”, the “ability to detect antibodies present in serum samples from melioidosis patients” value was “exquisite mimics of the whole Bp and Bm LPS OAgs; also recorded: able to detect antibodies present in serum samples from melioidosis patients”; the “ability to detect the antibodies compared with other antigens” value is given as “as effective as tetrasaccharide 8”.

On to `CO[C@H]1[C@@H](OC(C)=O)[C@H](O[C@@H]2[C@@H](O)[C@H](O[C@@H]3[C@H](O)[C@H](C)O[C@@H](O[C@@H]4[C@@H](O)[C@H](OCCCCCN)O[C@H](CO)[C@H]4O)[C@@H]3OC(C)=O)O[C@H](CO)[C@H]2O)O[C@@H](C)[C@H]1OC(C)=O.Cl` [tetrasaccharide 8, (5-Amino-1-pentyl) 2,4-di-O-acetyl-6-deoxy-3-O-methyl-α-L-talopyranosyl-(1→3)-β-D-glucopyranosyl-(1→3)-2-O-acetyl-6-deoxy-α-L-talopyranosyl-(1→3)-β-D-glucopyranoside hydrochloride], for which the “ability to detect antibodies present in serum samples from melioidosis patients” value was “exquisite mimics of the whole Bp and Bm LPS OAgs; also recorded: able to detect antibodies present in serum samples from melioidosis patients”.
